What is called IC50 is the concentration needed to halve the response being measured.

The target in one assay is T1, Chk1 (Homo sapiens, UniProt O14757).
T1 construct: purchased Upstate Biotechnology
T1 sequence (O14757 1-476): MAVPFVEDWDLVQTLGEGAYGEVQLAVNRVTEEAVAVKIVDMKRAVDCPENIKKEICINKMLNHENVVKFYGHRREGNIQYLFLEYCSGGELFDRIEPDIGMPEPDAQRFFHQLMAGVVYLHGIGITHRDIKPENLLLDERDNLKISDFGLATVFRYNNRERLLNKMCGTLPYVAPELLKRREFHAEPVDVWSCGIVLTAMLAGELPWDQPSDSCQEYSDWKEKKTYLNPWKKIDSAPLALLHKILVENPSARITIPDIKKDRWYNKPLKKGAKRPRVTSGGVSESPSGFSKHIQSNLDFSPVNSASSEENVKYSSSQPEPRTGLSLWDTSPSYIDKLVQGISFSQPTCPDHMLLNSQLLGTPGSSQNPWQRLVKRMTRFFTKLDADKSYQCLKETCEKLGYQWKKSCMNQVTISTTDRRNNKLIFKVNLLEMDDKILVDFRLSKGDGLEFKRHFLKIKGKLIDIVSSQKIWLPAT
Nature of the assay: Chk1 kinase assay: incorporation of γ-33P ATP into immobilized myelin basic protein. Format: biochemical. The following applies: Table 11, Chk1 only; class symbols A-D; read-out: Chk1 IC50. An outline of the steps:
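Incorporation of γ-33P into myelin basic protein coated on plates was scintillation-counted after 1 h at room temperature, duplicate points. Unlabeled ATP was 10 μM with 10 nM Chk1, 30 μM with 20 nM Chk2; buffer Hepes pH 7.6, MgCl2, DTT, 1% DMSO. Output IC50, optionally converted to Ki.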
On to `CN1CC[C@H](NC(=O)c2nc(-c3cccc(C(=O)N[C@@H]4c5ccccc5C[C@@H]4O)c3)cnc2N)C1` [Example 805, 3-amino-6-[3-({[(1R,2S)-2-hydroxy-2,3-dihydro-1H-inden-1-yl]amino}carbonyl)phenyl]-N-[(3S)-1-methylpyrrolidin-3-yl]pyrazine-2-carboxamide], for which the half-maximal inhibitory concentration (IC50) lay within 50 to 1000 nM.
Still for that read-out and setting: in the case of `Nc1ncc(-c2cccc(CNS(=O)(=O)c3ccc4c(c3)OCCCO4)c2)nc1C(=O)N[C@H]1CCCNC1` [Example 906, 3-amino-6-(3-{[(3,4-dihydro-2H-1,5-benzodioxepin-7-ylsulfonyl)amino]methyl}phenyl)-N-[(3S)-piperidin-3-yl]pyrazine-2-carboxamide] it was less than 50 nM; in that of `Nc1ncc(-c2cccc(OCCN3CCN(c4ccccc4)CC3)c2)nc1C(=O)N[C@H]1CCCNC1` [Example 894, 3-amino-6-(3-{[2-(4-phenylpiperazin-1-yl)ethyl]oxy}phenyl)-N-[(3S)-piperidin-3-yl]pyrazine-2-carboxamide], less than 50 nM.
Regarding `Nc1ncc(-c2cccc(C(=O)NCc3ccc(F)cc3Cl)c2)nc1C(=O)N[C@H]1CCCNC1` [Example 1002, 3-amino-6-[3-({[(2-chloro-4-fluorophenyl)methyl]amino}carbonyl)phenyl]-N-[(3S)-piperidin-3-yl]pyrazine-2-carboxamide], the IC50 was less than 50 nM.
As for `Nc1ncc(-c2cccc(CNS(=O)(=O)c3ccsc3)c2)nc1C(=O)N[C@H]1CCCNC1` [Example 954, 3-amino-N-[(3S)-piperidin-3-yl]-6-(3-{[(3-thienylsulfonyl)amino]methyl}phenyl)pyrazine-2-carboxamide], the concentration for half-maximal inhibition (IC50) was less than 50 nM.
Consider `Nc1ncc(-c2cccc(NC(=O)c3cccnc3)c2)nc1C(=O)N[C@H]1CCCNC1` [Example 981, 3-amino-N-[(3S)-piperidin-3-yl]-6-{3-[(pyridin-3-ylcarbonyl)amino]phenyl}pyrazine-2-carboxamide], for which the IC50 is less than 50 nM.
For `Nc1ncc(-c2cccc(C(=O)N[C@H]3CCc4ccccc43)c2)nc1C(=O)N[C@H]1CCCCN(Cc2ccccc2)C1` [Example 972, 3-amino-6-(3-{[(1S)-2,3-dihydro-1H-inden-1-ylamino]carbonyl}phenyl)-N-[(3S)-1-(phenylmethyl)azepan-3-yl]pyrazine-2-carboxamide], the concentration for half-maximal inhibition (IC50) was 50 to 1000 nM.
Take `Nc1ncc(-c2cccc(NC(=O)Cc3ccc(F)cc3)c2)nc1C(=O)N[C@H]1CCCNC1` [Example 983, 3-amino-6-(3-{[(4-fluorophenyl)acetyl]amino}phenyl)-N-[(3S)-piperidin-3-yl]pyrazine-2-carboxamide]: the half-inhibitory concentration (IC50) is less than 50 nM.

The same assay, now with this note: Table 11; Chk1 only; read-out: Chk1 IC50.
Regarding `CNC(=O)c1nc(-c2cccc(CNC3CCc4c(Cl)cccc43)c2)cnc1N` (stereo not drawn) [Example 487, 3-amino-6-(3-{[(4-chloro-2,3-dihydro-1H-inden-1-yl)amino]methyl}phenyl)-N-methylpyrazine-2-carboxamide], the half-maximal inhibitory concentration (IC50) was less than 50 nM.
Take `C=Cc1ccc(CNCc2cccc(-c3cnc(N)c(C(=O)NC)n3)c2)c(F)c1` [Example 458, 3-amino-6-[3-({[(4-ethenyl-2-fluorophenyl)methyl]amino}methyl)phenyl]-N-methylpyrazine-2-carboxamide]: the IC50 was in the range of 50 to 1000 nM.
`CNC(=O)c1nc(-c2cccc(CNC3CCc4cc(-c5ccc(C)cc5)ccc43)c2)cnc1N` (stereo not drawn) [Example 510, 3-amino-N-methyl-6-[3-({[5-(4-methylphenyl)-2,3-dihydro-1H-inden-1-yl]amino}methyl)phenyl]pyrazine-2-carboxamide]: the half-inhibitory concentration (IC50) fell in the range of 50 to 1000 nM.
On the same count and under the same terms, the same measure for `Nc1ncc(-c2cccc(CN[C@H]3CCc4ccccc43)c2)nc1C(=O)NCc1ccncc1` [Example 534, 3-amino-6-(3-{[(1S)-2,3-dihydro-1H-inden-1-ylamino]methyl}phenyl)-N-(pyridin-4-ylmethyl)pyrazine-2-carboxamide]: 1000 to 10000 nM; for `CC(C)(C)OC(=O)N1CC[C@H](CNC(=O)c2nc(-c3cccc(C(=O)N[C@@H]4c5ccccc5C[C@@H]4O)c3)cnc2N)C1` [Example 786, 1,1-dimethylethyl (3R)-3-{[({3-amino-6-[3-({[(1R,2S)-2-hydroxy-2,3-dihydro-1H-inden-1-yl]amino}carbonyl)phenyl]pyrazin-2-yl}carbonyl)amino]methyl}pyrrolidine-1-carboxylate]: no less than 10000 nM.
The same measure, in the same setting: the same measure for `CNC(=O)c1nc(-c2cccc(CNC3CCc4ccc(Br)cc43)c2)cnc1N` (stereo not drawn) [Example 501, 3-amino-6-(3-{[(6-bromo-2,3-dihydro-1H-inden-1-yl)amino]methyl}phenyl)-N-methylpyrazine-2-carboxamide]: 50 to 1000 nM; for `CNC(=O)c1nc(-c2cccc(CN[C@H]3CCc4cc(Br)ccc4C3)c2)cnc1N` [Example 462, 3-amino-6-[3-({[(2S)-6-bromo-1,2,3,4-tetrahydronaphthalen-2-yl]amino}methyl)phenyl]-N-methylpyrazine-2-carboxamide]: less than 50 nM; for `CC(C)(C)OC(=O)N1CC[C@H](NC(=O)c2nc(-c3cccc(C(=O)NC4CCOc5ccccc54)c3)cnc2N)C1` (stereo partly drawn) [Example 759, 1,1-dimethylethyl (3S)-3-{[(3-amino-6-{3-[(3,4-dihydro-2H-chromen-4-ylamino)carbonyl]phenyl}pyrazin-2-yl)carbonyl]amino}pyrrolidine-1-carboxylate]: 1000 to 10000 nM.
Take `CNC(=O)c1nc(-c2cccc(CNC(CN3CCOCC3)c3ccccc3)c2)cnc1N` (stereo not drawn) [Example 517, 3-amino-N-methyl-6-(3-{[(2-morpholin-4-yl-1-phenylethyl)amino]methyl}phenyl)pyrazine-2-carboxamide]: the half-inhibitory concentration (IC50) lay in the range of 1000 to 10000 nM.
Take `Nc1ncc(-c2cccc(C(=O)N[C@H]3CCc4ccccc43)c2)nc1C(=O)NC[C@H]1CCNC1` [Example 785, 3-amino-6-(3-{[(1S)-2,3-dihydro-1H-inden-1-ylamino]carbonyl}phenyl)-N-[(3S)-pyrrolidin-3-ylmethyl]pyrazine-2-carboxamide]: the IC50 was less than 50 nM.
For `Nc1ncc(-c2cccc(C(=O)NCc3ccccc3)c2)nc1C(=O)N[C@@H](CCC(=O)O)C(=O)O` [Example 594, N-{[3-amino-6-(3-{[(phenylmethyl)amino]carbonyl}phenyl)pyrazin-2-yl]carbonyl}glutamic acid], the IC50 lay in the range of 1000 to 10000 nM.
For the compound `Cc1noc(C)c1NC(=O)NCCCNC(=O)c1nc(-c2cccc(C(=O)NCc3ccccc3)c2)cnc1N` [Example 655, 3-amino-N-[3-({[(3,5-dimethylisoxazol-4-yl)amino]carbonyl}amino)propyl]-6-(3-{[(phenylmethyl)amino]carbonyl}phenyl)pyrazine-2-carboxamide], the IC50 lay in the range of 1000 to 10000 nM.

The same assay, now with this note: read-out: Chk1 IC50.
For the compound `CNC(=O)c1nc(-c2cccc(C(=O)NCCc3cccs3)c2)cnc1N` [Example 132, 3-amino-N-methyl-6-[3-({[2-(2-thienyl)ethyl]amino}carbonyl)phenyl]pyrazine-2-carboxamide], the half-maximal inhibitory concentration (IC50) was in the range of 50 to 1000 nM.
Still for that read-out and setting: in the case of `CNC(=O)c1nc(-c2cccc(-c3nnn[nH]3)c2)cnc1N` [Example 83, 3-amino-N-methyl-6-[3-(1H-tetrazol-5-yl)phenyl]pyrazine-2-carboxamide] it was 1000 to 10000 nM.
In the case of `CNC(=O)c1nc(-c2cccc(CNC(=O)c3ncccc3O)c2)cnc1N` [Example 335, 3-amino-6-[3-({[(3-hydroxypyridin-2-yl)carbonyl]amino}methyl)phenyl]-N-methylpyrazine-2-carboxamide], the half-maximal inhibitory concentration (IC50) was 50 to 1000 nM.
Consider `CNC(=O)c1nc(-c2ccc(C(=O)NCCc3ccccc3)cc2)cnc1N` [Example 151, 3-amino-N-methyl-6-(4-{[(2-phenylethyl)amino]carbonyl}phenyl)pyrazine-2-carboxamide], for which the half-inhibitory concentration (IC50) was 50 to 1000 nM.
`CNC(=O)c1nc(-c2cccc(C(=O)NCC3CCCN3C(=O)OC(C)(C)C)c2)cnc1N` (stereo not drawn) [Example 365, 1,1-dimethylethyl 2-({[(3-{5-amino-6-[(methylamino)carbonyl]pyrazin-2-yl}phenyl)carbonyl]amino}methyl)pyrrolidine-1-carboxylate]: the 50% inhibitory concentration (IC50) lay in the range of 1000 to 10000 nM.
Turning to `COC(=O)c1cccc(-c2cnc(N)c(C(=O)NC3CC3)n2)c1` [Example 241, methyl 3-{5-amino-6-[(cyclopropylamino)carbonyl]pyrazin-2-yl}benzoate], the IC50 is no less than 10000 nM.
Turning to `CNC(=O)c1nc(-c2cccc(NC(=O)c3ccc(C#N)cc3)c2)cnc1N` [Example 167, 3-amino-6-(3-{[(4-cyanophenyl)carbonyl]amino}phenyl)-N-methylpyrazine-2-carboxamide], the concentration for half-maximal inhibition (IC50) is 50 to 1000 nM.
On to `CCCCCc1ccc(C(=O)NCc2cccc(-c3cnc(N)c(C(=O)NC)n3)c2)cc1` [Example 351, 3-amino-N-methyl-6-[3-({[(4-pentylphenyl)carbonyl]amino}methyl)phenyl]pyrazine-2-carboxamide], for which the IC50 fell in the range of 50 to 1000 nM.
On to `CNC(=O)c1nc(-c2cccc(C(=O)NC3CC3)c2)cnc1N` [Example 278, 3-amino-6-{3-[(cyclopropylamino)carbonyl]phenyl}-N-methylpyrazine-2-carboxamide], for which the IC50 is 1000 to 10000 nM.
Take `CNC(=O)c1nc(-c2cccc(CNC(=O)Cc3ccccc3)c2)cnc1N` [Example 330, 3-amino-N-methyl-6-(3-{[(phenylacetyl)amino]methyl}phenyl)pyrazine-2-carboxamide]: the IC50 was in the range of 50 to 1000 nM.

These data come from patent US7704995B2 (Exelixis, Inc., priority 2003, dated 2010).
